Data: US10682319B2, “Necrosis inhibitors” (National Institute of Biological Sciences, Beijing, priority 2014, dated 2020)

What follows are molecules tested on HT-29 cells (assay: Necrosis assay (TNF-α/Smac mimetic/z-VAD induced necrosis, cell viability by ATP level)). Conditions: HT-29, TNF-α + Smac mimetic + z-VAD, 24 hrs, ATP level; values given as ranges in nM; read-out: EC50 (inhibition of necrosis in HT-29 cells).
Format: cell-based
Experimental: HT-29 cells were cultured in McCoy's 5 A culture medium (Invitrogen). On day one, HT-29 cells were plated in 96-well assay plates at density of 2,500-3,500 cells per well. On day two, necrosis were induced by adding 20 ng/ml TNF-α (T), 100 nM Smac mimetic (S), and […] z-VAD (Z). At the same time, […] compound from a chemical library of ˜200,000 compounds was delivered into each well. After 24 hrs treatment, cell viability was determined by measuring ATP level using the CellTiter-Glo Luminescent Cell Viability Assay kit. A CellTiter-Glo Assay (Promega) was performed according to the manufacturer's instructions Luminescence was recorded with a PerkinElmer EnSpire Multimode Plate Reader. Survived cells were normalized to those cells treated with DMSO. Nec-1 was used as a positive control for screening necrosis inhibitors. Data are represented as mean±standard deviation of duplicates
Dose-dependent inhibition of necrosis by the compounds in HT-29 cells were determined by measuring ATP levels as described above.

Row | SMILES | EC50 [nM]
1 | CCC(C)(C)C(=O)N(C)Cc1ccc(F)c(F)c1F [Compound 49, N,2,2-trimethyl-N-(2,3,4-trifluorobenzyl)butanamide] | 1 to 1000
2 | CCC(C)(C)C(=O)NCc1ccccc1 [Compound 58, N-benzyl-2,2-dimethylbutanamide] | 1 to 1000
3 | CN(Cc1cc(F)cc(F)c1F)C(=O)C1(C)CCCCC1 [Compound 65, N,1-dimethyl-N-(2,3,5-trifluorobenzyl)cyclohexanecarboxamide] | 1 to 1000
4 | CCC(C)(C)C(=O)NCc1cc(F)cc(F)c1F [Compound 70, 2,2-dimethyl-N-(2,3,5-trifluorobenzyl)butanamide] | 1 to 1000
5 | CCC(C)(C)C(=O)N(CCO)Cc1cc(F)cc(F)c1F [Compound 77, N-(2-hydroxyethyl)-2,2-dimethyl-N-(2,3,5-trifluorobenzyl)butanamide] | 1 to 1000
6 | CN(Cc1cc(F)cc(F)c1F)C(=O)C1(C(F)(F)F)CCC1 [Compound 84, N-methyl-N-(2,3,5-trifluorobenzyl)-1-(trifluoromethyl)cyclobutanecarboxamide] | 1 to 1000
7 | CCC(C)(C)C(=O)N(C)Cc1ccccc1 [Compound 90, N-benzyl-N,2,2-trimethylbutanamide] | 1 to 1000
8 | CCC(C)(C)C(=O)N(C)Cc1ccc(F)c(F)c1 [Compound 91, N-(3,4-difluorobenzyl)-N,2,2-trimethylbutanamide] | 1 to 1000
9 | CCC(C)(C)C(=O)N(O)Cc1cc(F)cc(F)c1F [Compound 93, N-hydroxy-2,2-dimethyl-N-(2,3,5-trifluorobenzyl)butanamide] | 1 to 1000
10 | CCC(C)(C)C(=O)N(O)Cc1ccc(F)cc1 [Compound 94, N-(4-fluorobenzyl)-N-hydroxy-2,2-dimethylbutanamide] | 1 to 1000
11 | CCC(C)(C)C(=O)N(O)Cc1ccc(F)c(F)c1 [Compound 95, N-(3,4-difluorobenzyl)-N-hydroxy-2,2-dimethylbutanamide] | 1 to 1000
12 | CCC(C)(C)C(=O)N(O)Cc1ccc(F)cc1F [Compound 96, N-(2,4-difluorobenzyl)-N-hydroxy-2,2-dimethylbutanamide] | 1 to 1000
13 | CCC(C)(C)C(=O)N(O)Cc1ccc(F)c(F)c1F [Compound 97, N-hydroxy-2,2-dimethyl-N-(2,3,4-trifluorobenzyl)butanamide] | 1 to 1000
14 | CCC(C)(C)C(=O)N(O)Cc1cc(F)c(F)cc1F [Compound 98, N-hydroxy-2,2-dimethyl-N-(2,4,5-trifluorobenzyl)butanamide] | 1 to 1000

Same assay, conditions: Homo sapiens, HT-29, 24 h, HT-29, TNF-α + Smac mimetic + z-VAD, 24 hrs, ATP level; values given as ranges in uM; read-out: EC50 (inhibition of necrosis in HT-29 cells)

Row | SMILES | EC50 [nM]
15 | CCC(C)(C)C(=O)N(C)Cc1c(F)cc(F)cc1F [Compound 48, N,2,2-trimethyl-N-(2,4,6-trifluorobenzyl)butanamide] | 1000 to 10000
16 | CCC(C)(C)C(=O)N(C)Cc1c(F)ccc(C)c1F [Compound 50, N-(2,6-difluoro-3-methylbenzyl)-N,2,2-trimethylbutanamide] | 1000 to 10000
17 | CCC(C)(C)C(=O)N(C)Cc1c(F)c(F)cc(F)c1F [Compound 51, N,2,2-trimethyl-N-(2,3,5,6-tetrafluorobenzyl)butanamide] | 1000 to 10000
18 | CCC(C)(C)C(=O)NC(C)c1ccccc1 (stereo not drawn) [Compound 52, 2,2-dimethyl-N-(1-phenylethyl)butanamide] | 1000 to 100000
19 | CCC(C)(C)C(=O)N(C)C(C)c1ccccc1 (stereo not drawn) [Compound 53, N,2,2-trimethyl-N-(1-phenylethyl)butanamide] | 1000 to 100000
20 | CCC(C)(C)C(=O)NC1(c2ccccc2)CC1 [Compound 54, 2,2-dimethyl-N-(1-phenylcyclopropyl)butanamide] | 1000 to 100000
21 | CCC(C)(C)C(=O)N(C)C1(c2ccccc2)CC1 [Compound 55, N,2,2-trimethyl-N-(1-phenylcyclopropyl)butanamide] | 1000 to 100000
22 | CCC(C)(C)C(=O)N(C)Cc1cc(F)ccc1Br [Compound 56, N-(2-bromo-5-fluorobenzyl)-N,2,2-trimethylbutanamide] | 1000 to 10000
23 | CCC(C)(C)C(=O)N(C)Cc1cc(F)ccc1C#N [Compound 57, N-(2-cyano-5-fluorobenzyl)-N,2,2-trimethylbutanamide] | 1000 to 10000
24 | CN(Cc1ccccc1F)C(=O)CC(C)(C)C [Compound 59, N-(2-fluorobenzyl)-N,3,3-trimethylbutanamide] | 1000 to 10000
25 | CN(Cc1ccccc1F)C(=O)C1CCCCC1 [Compound 60, N-(2-fluorobenzyl)-N-methylcyclohexanecarboxamide] | 1000 to 10000
26 | CN(Cc1ccccc1F)C(=O)c1ccccc1 [Compound 61, N-(2-fluorobenzyl)-N-methylbenzamide] | 1000 to 100000
27 | CN(Cc1ccccc1F)C(=O)C1CC1 [Compound 62, N-(2-fluorobenzyl)-N-methylcyclopropanecarboxamide] | 1000 to 100000
28 | CCC(C)(C)C(=O)N(CCCOC)Cc1cccc(F)c1 [Compound 63, N-(3-fluorobenzyl)-N-(3-methoxypropyl)-2,2-dimethylbutanamide] | 1000 to 100000
29 | CCC(C)(C)C(=O)N(Cc1cccc(F)c1)CC1CC1 [Compound 64, N-(cyclopropylmethyl)-N-(3-fluorobenzyl)-2,2-dimethylbutanamide] | 1000 to 100000
30 | CN(Cc1cc(F)c(F)c(F)c1)C(=O)C(C)(C)CO [Compound 66, 3-hydroxy-N,2,2-trimethyl-N-(3,4,5-trifluorobenzyl)propanamide] | 1000 to 100000
31 | COC(C)(C)C(=O)N(C)Cc1cc(F)cc(F)c1F [Compound 67, 2-methoxy-N,2-dimethyl-N-(2,3,5-trifluorobenzyl)propanamide] | 1000 to 10000
32 | CNCC(C)(C)C(=O)N(C)Cc1cc(F)c(F)c(F)c1 [Compound 68, N,2,2-trimethyl-3-(methylamino)-N-(3,4,5-trifluorobenzyl) propanamide] | 1000 to 100000
33 | CN(Cc1cc(F)c(F)c(F)c1)C(=O)C(C)(C)C [Compound 69, N-methyl-N-(3,4,5-trifluorobenzyl)pivalamide] | 1000 to 10000

Row | SMILES | EC50 [nM]
34 | COCC(C)(C)C(=O)N(C)Cc1cc(F)c(F)c(F)c1 [Compound 71, 3-methoxy-N,2,2-trimethyl-N-(3,4,5-trifluorobenzyl)propanamide] | 1000 to 100000
35 | CCC(C)(CC)C(=O)N(C)Cc1cc(F)c(F)c(F)c1 [Compound 72, 2-ethyl-N,2-dimethyl-N-(3,4,5-trifluorobenzyl)butanamide] | 1000 to 10000
36 | CCC(C)(CC)C(=O)NCc1cc(F)cc(F)c1F [Compound 73, 2-ethyl-2-methyl-N-(2,3,5-trifluorobenzyl)butanamide] | 1000 to 10000
37 | CCN(Cc1cc(F)cc(F)c1F)C(=O)C1CCCCC1 [Compound 74, N-ethyl-N-(2,3,5-trifluorobenzyl)cyclohexanecarboxamide] | 1000 to 100000
38 | CN(Cc1cc(F)cc(F)c1F)C(=O)C12CC3CC(CC(C3)C1)C2 [Compound 76, N-methyl-N-(2,3,5-trifluorobenzyl)adamantane-1-carboxamide] | 1000 to 100000
39 | CN(Cc1cc(F)cc(F)c1F)[S+]([O-])C(C)(C)C (stereo not drawn) [Compound 78, N,2-dimethyl-N-(2,3,5-trifluorobenzyl)propane-2-sulfinamide] | 1000 to 100000
40 | CN(Cc1cc(F)cc(F)c1F)S(=O)(=O)C1CCCCC1 [Compound 79, N-methyl-N-(2,3,5-trifluorobenzyl)cyclohexanesulfonamide] | 1000 to 100000
41 | CN(Cc1cc(F)cc(F)c1F)C(=O)C1(C)CC1 [Compound 80, N,1-dimethyl-N-(2,3,5-trifluorobenzyl)cyclopropanecarboxamide] | 1000 to 100000
42 | CN(Cc1cc(F)c(F)c(F)c1)C(=O)C1C(C)(C)C1(C)C [Compound 81, N,2,2,3,3-pentamethyl-N-(3,4,5-trifluorobenzyl)-cyclopropanecarboxamide] | 1000 to 100000
43 | CN(Cc1cc(F)cc(F)c1F)C(=O)C1(c2ccccc2)CC1 [Compound 82, N-methyl-1-phenyl-N-(2,3,5-trifluorobenzyl)cyclopropanecarboxamide] | 1000 to 100000
44 | CN(Cc1cc(F)cc(F)c1F)C(=O)C1CCC1 [Compound 83, N-methyl-N-(2,3,5-trifluorobenzyl)cyclobutanecarboxamide] | 1000 to 10000
45 | CN(Cc1cc(F)c(F)c(F)c1)C(=O)C1CCCC1 [Compound 85, N-methyl-N-(3,4,5-trifluorobenzyl)cyclopentanecarboxamide] | 1000 to 100000
46 | CN(Cc1cc(F)cc(F)c1F)C(=O)C1(C(F)(F)F)CCCC1 [Compound 86, N-methyl-N-(2,3,5-trifluorobenzyl)-1-(trifluoromethyl)cyclopentanecarboxamide] | 1000 to 100000
47 | CN(Cc1cc(F)cc(F)c1F)C(=O)C1(c2ccccc2)CCCC1 [Compound 87, N-methyl-1-phenyl-N-(2,3,5-trifluorobenzyl)cyclopentanecarboxamide] | 1000 to 100000
48 | CCC1(C(=O)N(C)Cc2cc(F)c(F)c(F)c2)CCC1 [Compound 88, 1-ethyl-N-methyl-N-(3,4,5-trifluorobenzyl)cyclobutanecarboxamide] | 1000 to 100000
49 | CCC1(C(=O)N(C)Cc2cc(F)c(F)c(F)c2)CCCC1 [Compound 89, 1-ethyl-N-methyl-N-(3,4,5-trifluorobenzyl)cyclopentanecarboxamide] | 1000 to 10000
50 | CCC(C)(C)C(=O)N[C@@H](CC(=O)OC)c1ccccc1 [Compound 100, (S)-methyl 3-(2,2-dimethylbutanamido)-3-phenylpropanoate] | 1000 to 100000
51 | CCC(C)(C)C(=O)N[C@@H](CC(=O)NC)c1ccccc1 [Compound 101, (S)-2,2-dimethyl-N-(3-(methylamino)-3-oxo-1-phenylpropyl)butanamide] | 1000 to 100000
